Consider 21 compounds from patent EP3284739A1, “SUBSTITUTED (HET) ARYL COMPOUNDS AS PESTICIDES” (Bayer CropScience Aktiengesellschaft, priority 2017, dated 2018).

Data set [1] in a line: logP by reversed-phase HPLC (LC-MS), neutral range. Format: physicochemical. Conditions: c18 hplc, ammonium bicarbonate/acetonitrile; pH 7.8, 0,001 molar aqueous Ammoniumhydrogencarbonat / Acetonitril, C 18, 55°C. As for the experimental part: (§1) Die Messung der logP Werte erfolgt gemäß EEC Directive 79/831 Annex V.A8 durch HPLC (High Performance Liquid Chromatography) an einer Phasenumkehrsäule (C 18). Temperatur: 55°C. Die Bestimmung mit der LC-MS im sauren Bereich erfolgt bei pH 2,7 mit 0,1 % wässriger Ameisensäure und Acetonitril (enthält 0,1% Ameisensäure) als Eluenten; linearer Gradient von 10% Acetonitril bis 95% Acetonitril. In der Tabelle logP (HCOOH) genannt.
Die Bestimmung mit der LC-MS im neutralen Bereich erfolgt bei pH 7.8 mit 0,001 molarer wässriger Ammoniumhydrogencarbonat-Lösung und Acetonitril als Eluenten; linearer Gradient von 10 % Acetonitril bis 95 % Acetonitril. In der Tabelle logP (neutral) genannt.
(§2) Die Eichung erfolgt mit unverzweigten Alkan-2-onen (mit 3 bis 16 Kohlenstoffatomen), deren logP-Werte bekannt sind (Bestimmung der logP-Werte anhand der Retentionszeiten durch lineare Interpolation zwischen zwei aufeinander folgenden Alkanonen).

Data set [2] concerns Ctenocephalides felis. The data set is described as follows: Ctenocephalides felis oral test (feeding on treated citrated cattle blood). Format: in vivo. Conditions: 48 h, Aufwandmenge 100ppm, after 2 days, read-out: Wirkung (Abtötung). Here is the method: Zwecks Herstellung einer zweckmäßigen Wirkstoffzubereitung vermischt man 10 mg Wirkstoff mit 0,5 ml Dimethylsulfoxid. Durch Verdünnen mit citriertem Rinderblut erhält man die gewünschte Konzentration.
Ca. 20 nüchterne adulte Katzenflöhe (Ctenocephalides felis) werden in eine Kammer eingesetzt, die oben und unten mit Gaze verschlossen ist. Auf die Kammer wird ein Metallzylinder gestellt, dessen Unterseite mit Parafilm verschlossen ist. Der Zylinder enthält die Blut-Wirkstoffzubereitung, die von den Flöhen durch die Parafilmmembran aufgenommen werden kann.
Nach 2 Tagen wird die Abtötung in % bestimmt. Dabei bedeutet 100 %, dass alle Flöhe abgetötet wurden; 0 % bedeutet, dass keiner der Flöhe abgetötet wurde.

The test system of a further data set is Phaedon cochleariae. Briefly: Phaedon cochleariae spray test (Chinese cabbage leaf discs, larvae). It counts as in vivo. Conditions: foliar, 168 h, read-out: Wirkung. The source says: (§3) Zur Herstellung einer zweckmäßigen Wirkstoffzubereitung löst man 1 Gewichtsteil Wirkstoff mit den angegebenen Gewichtsteilen Lösungsmittel und füllt mit Wasser, welches eine Emulgatorkonzentration von 1000 ppm enthält, bis zum Erreichen der gewünschten Konzentration auf. Zur Herstellung weiterer Testkonzentrationen wird mit emulgatorhaltigem Wasser verdünnt.
Chinakohlblattscheiben (Brassica pekinensis) werden mit einer Wirkstoffzubereitung der gewünschten Konzentration gespritzt und nach dem Abtrocknen mit Larven des Meerrettichblattkäfers (Phaedon cochleariae) besetzt.
Nach 7 Tagen wird die Wirkung in % bestimmt. Dabei bedeutet 100 %, dass alle Käferlarven abgetötet wurden; 0 % bedeutet, dass keine Käferlarven abgetötet wurden.

A further data set relates to Musca domestica. The data set is described as follows: Musca domestica test (adult flies, treated sugar sponge). Format: in vivo. To be noted: 48 h, read-out: Wirkung (Abtötung). As for the experimental part: (§4) Zur Herstellung einer zweckmäßigen Wirkstoffzubereitung vermischt man 10 mg Wirkstoff mit 0,5 ml Dimethylsulfoxid und verdünnt das Konzentrat mit Wasser auf die gewünschte Konzentration.
Gefäße, die einen Schwamm enthalten, der mit Zuckerlösung und der Wirkstoffzubereitung der gewünschten Konzentration behandelt wurde, werden mit 10 adulten Stubenfliegen (Musca domestica) besetzt.
Nach 2 Tagen wird die Abtötung in % bestimmt. Dabei bedeutet 100 %, dass alle Fliegen abgetötet wurden; 0 % bedeutet, dass keine der Fliegen abgetötet wurde.

The next data set relates to Spodoptera frugiperda. Briefly: Spodoptera frugiperda spray test (maize leaf discs, caterpillars). Format: in vivo. To be noted: foliar, 168 h, Aufwandmenge 500g/ha, after 7 days, read-out: Wirkung.
Text: as §3
Maisblattscheiben (Zea mays) werden mit einer Wirkstoffzubereitung der gewünschten Konzentration gespritzt und nach dem Abtrocknen mit Raupen des Heerwurms (Spodoptera frugiperda) besetzt.
Nach 7 Tagen wird die Wirkung in % bestimmt. Dabei bedeutet 100 %, dass alle Raupen abgetötet wurden; 0 % bedeutet, dass keine Raupe abgetötet wurde.

The subject of another data set is Lucilia cuprina. The data set is described as follows: Lucilia cuprina test (L1 larvae on treated minced horse meat). Format: in vivo. Conditions: 48 h, Aufwandmenge 100ppm, after 2 days, read-out: Wirkung (Abtötung). As for the experimental part: as §4
Ca. 20 L1-Larven der Australischen Schafgoldfliege (Lucilia cuprina) werden in ein Testgefäß überführt, welches gehacktes Pferdefleisch und die Wirkstoffzubereitung der gewünschten Konzentration enthält.
Nach 2 Tagen wird die Abtötung in % bestimmt. Dabei bedeutet 100 %, dass alle Larven abgetötet wurden; 0 % bedeutet, dass keine Larven abgetötet wurden.

The subject of a further data set is Tetranychus urticae. The data set is described as follows: Tetranychus urticae spray test, OP-resistant (bean leaf discs). To be noted: foliar, 144 h, read-out: Wirkung. It counts as in vivo.
Text: as §3
Bohnenblattscheiben (Phaseolus vulgaris), die von allen Stadien der Gemeinen Spinnmilbe (Tetranychus urticae) befallen sind, werden mit einer Wirkstoffzubereitung der gewünschten Konzentration gespritzt.
Nach 6 Tagen wird die Wirkung in % bestimmt. Dabei bedeutet 100 %, dass alle Spinnmilben abgetötet wurden; 0 % bedeutet, dass keine Spinnmilben abgetötet wurden.

Data set [3] deals with Ctenocephalides felis. Briefly: Ctenocephalides felis in-vitro contact test with adult cat fleas (coated glass tubes). Format: in vivo. To be noted: 48 h, read-out: Wirkung. Here is the method: Für die Beschichtung der Teströhrchen werden zunächst 9 mg Wirkstoff in 1 ml Aceton p.a. gelöst und anschließend mit Aceton p.a. auf die gewünschte Konzentration verdünnt. 250 µl der Lösung werden durch Drehen und Kippen auf einem Rotationsschüttler (2 h Schaukelrotation bei 30 rpm) homogen auf den Innenwänden und dem Boden eines 25ml Glasröhrchens verteilt. Bei 900 ppm Wirkstofflösung und 44,7 cm^2 Innenoberfläche wird bei homogener Verteilung eine Flächendosis von 5 µg/cm^2 erreicht.
Nach Abdampfen des Lösungsmittels werden die Gläschen mit 5-10 adulten Katzenflöhen (Ctenocephalides felis) besetzt, mit einem gelochten Kunststoffdeckel verschlossen und liegend bei Raumtemperatur und Umgebungsfeuchte inkubiert. Nach 48 h wird die Wirksamkeit bestimmt. Hierzu werden die Gläschen aufrecht gestellt und die Flöhe auf den Boden des Gläschens geklopft. Flöhe, die unbeweglich auf dem Boden verbleiben oder sich unkoordiniert bewegen, gelten als tot bzw. angeschlagen.
Eine Substanz zeigt gute Wirkung gegen Ctenocephalides felis, wenn in diesem Test bei einer Aufwandmenge von 5 µg/cm^2 mindestens 80% Wirkung erzielt wurde. Dabei bedeutet 100% Wirkung, dass alle Flöhe angeschlagen oder tot waren. 0% Wirkung bedeutet, dass keine Flöhe geschädigt wurden.

A short description of data set [4]: logP by reversed-phase HPLC (LC-MS), acidic range. It counts as physicochemical. Conditions: c18 hplc, formic acid/acetonitrile; pH 2,7, 0,1 % aqueous Ameisensäure / Acetonitril, C 18, 55°C; read-out: logP (HCOOH). Here is the method:
as §1, §2

Each structure is given as a SMILES string. Where two headings read alike, the source gives them in different places.

In turn, `Nc1cc(N)cc(-c2ccc(C(F)(F)C(F)(F)F)c(F)c2)c1` [3'-Fluor-4'-(pentafluorethyl)biphenyl-3,5-diamin] showed a chromatographic logP in data set [1] of 2.83.
`Nc1cc(Br)c(Cl)c(N)n1` [4-Brom-3-chlorpyridin-2,6-diamin] gave a chromatographic logP in [1] of 1.46.
For `O=C(Nc1cc(-c2ccc(OC(F)(F)F)cc2)cc(NC(=O)C2(C(F)(F)F)CC2)n1)C1CC1` [I-006], the mortality at 100 µg/mL is 100% with Ctenocephalides felis [2] and 90% in the data set with Musca domestica. In addition, the mortality at 500 g/ha in the data set with Phaedon cochleariae was found to be 83%; in the data set on Spodoptera frugiperda, 100%.
Take `O=C(Nc1cc(-c2ccc(OC(F)(F)F)cc2)cc(NC(=O)C2(F)CC2)n1)C1CC1` [I-012, N-{6-[(Cyclopropylcarbonyl)amino]-4-[4-(trifluormethoxy)phenyl]pyridin-2-yl}-1-fluorcyclopropancarboxamid]: the mortality at 100 µg/mL in the data set on Ctenocephalides felis [2] worked out at 95%. The mortality at 500 g/ha in the data set on Phaedon cochleariae and with Spodoptera frugiperda was 100% in each case. For the same compound, in data set [1], the chromatographic logP is 3.88.
For `O=C(Nc1cc(-c2ccc(OC(F)(F)F)cc2)cc(NC(=O)C2(C3CC3)CC2)n1)C1CC1` [I-014], the mortality at 100 µg/mL came out at 100% with Ctenocephalides felis [2], 80% in the data set with Musca domestica and 100% with Lucilia cuprina. Also, the mortality at 500 g/ha with Phaedon cochleariae and in the data set with Spodoptera frugiperda was 100% in each case.
For the compound `CC(C)(F)C(=O)Nc1cc(-c2ccc(OC(F)(F)F)cc2)cc(NC(=O)C2CC2)n1` [I-015], in the data set on Ctenocephalides felis [2], the mortality at 100 µg/mL came out at 100%. The mortality at 500 g/ha is 100% with Phaedon cochleariae, 90% in the data set with Tetranychus urticae and 100% in the data set on Spodoptera frugiperda.
Take `CC(C)(C)C(=O)Nc1cc(-c2ccc(OC(F)(F)F)cc2)cc(NC(=O)C2CC2)n1` [I-017]: the mortality at 500 g/ha in the data set on Ctenocephalides felis [3], with Phaedon cochleariae and in the data set on Spodoptera frugiperda was 100% in each case. Further, the mortality at 100 µg/mL in the data set on Ctenocephalides felis [2] came out at 100%.
Compound `CCN(C(=O)C1CC1)c1cc(-c2ccc(OC(F)(F)F)cc2)cc(N(CC)C(=O)C2CC2)n1` [I-29, N,N'-{4-[4-(Trifluormethoxy)phenyl]pyridin-2,6-diyl}bis(N-ethylcyclopropancarboxamid)] yielded a chromatographic logP in data set [1] of 4.05.
Consider `CN(C(=O)C1CC1)c1cc(-c2ccc(OC(F)(F)F)cc2)cc(NC(=O)C2CC2)n1` [I-31, N-{6-[(Cyclopropylcarbonyl)amino]-4-[4-(trifluormethoxy)phenyl]pyridin-2-yl}-N-methylcyclopropancarboxamid], for which the chromatographic logP in data set [1] worked out at 3.66.
In turn, `FC(F)(F)Oc1ccc(-c2cc(NC(=S)C3CC3)nc(NC(=S)C3CC3)c2)cc1` [I-032, N,N'-{4-[4-(Trifluormethoxy)phenyl]pyridin-2,6-diyl}dicyclopropancarbothioamid] had a chromatographic logP in [1] of 4.98. The mortality at 500 g/ha with Spodoptera frugiperda was found to be 100%.
In data set [1], `O=C(Nc1cc(-c2ccc(OC(F)(F)F)cc2)cc(NC(=S)C2CC2)n1)C1CC1` [I-033, N-{6-[(Cyclopropylcarbonothioyl)amino]-4-[4-(trifluormethoxy)phenyl]pyridin-2-yl}cyclopropancarboxamid] returned a chromatographic logP of 4.44. Moreover, the mortality at 500 g/ha in the data set on Spodoptera frugiperda came out at 100%.
As for `CC1=CC1C(=O)Nc1cc(-c2ccc(OC(F)(F)F)cc2)cc(NC(=O)C2CC2)n1` (stereo not drawn) [I-034], the mortality at 500 g/ha with Tetranychus urticae (Aufwandmenge 500g/ha, after 6 days, OP-resistent) was determined as 90%.
As to `O=C(Nc1cc(-c2ccc(C(F)(F)C(F)(F)F)c(F)c2)cc(NC(=O)C2CC2)n1)C1CC1` [I-035, N,N'-{4-[3-Fluor-4-(pentafluorethyl)phenyl]pyridin-2,6-diyl}dicyclopropancarboxamid], the mortality at 500 g/ha in the data set with Phaedon cochleariae and with Spodoptera frugiperda was 100% in each case. The compound also had a chromatographic logP in data set [1] of 4.06.
In the case of `O=C(Nc1cc(-c2ccc(C(F)(F)C(F)(F)F)cc2)cc(NC(=O)C2CC2)n1)C1CC1` [I-036], the mortality at 100 µg/mL in the data set on Ctenocephalides felis [2] was found to be 100%; in the data set with Lucilia cuprina it was 95%. The mortality at 500 g/ha in the data set with Phaedon cochleariae was 83%; with Tetranychus urticae, 90%; in the data set with Spodoptera frugiperda, 100%.
For `COC(=O)N(C(=O)C1CC1)c1cc(-c2ccc(OC(F)(F)F)cc2)cc(N(C(=O)OC)C(=O)C2CC2)n1` [I-037, Dimethyl-{4-[4-(trifluormethoxy)phenyl]pyridin-2,6-diyl}bis[(cyclopropylcarbonyl)carbamat]], in the data set on Phaedon cochleariae (Aufwandmenge 500g/ha, after 7 days), the mortality at 500 g/ha came out at 100%. In [1], this compound had a chromatographic logP of 3.73.
As for `CC(C)C(=O)Nc1cc(NC(=O)C2CC2)cc(-c2ccc(C(F)(F)C(F)(F)F)c(F)c2)c1` [I-060, N-[3'-Fluor-5-(isobutyrylamino)-4'-(pentafluorethyl)biphenyl-3-yl]cyclopropancarboxamid], the chromatographic logP in data set [4] is 3.7. For the same compound, the mortality at 500 g/ha in the data set with Phaedon cochleariae and with Spodoptera frugiperda was 100% throughout.
With `O=C(Nc1cc(Br)cc(NC(=O)C2CC2)n1)C1CC1` [N,N'-(4-Brompyridin-2,6-diyl)dicyclopropancarboxamid], the chromatographic logP in data set [1] is 2.35.
Compound `CC1(C)OB(c2cc(NC(=O)C3CC3)nc(NC(=O)C3CC3)c2)OC1(C)C` [N,N'-[4-(4,4,5,5-Tetramethyl-1,3,2-dioxaborolan-2-yl)pyridin-2,6-diyl]dicyclopropancarboxamid] displayed a chromatographic logP in data set [1] of 0.89.
As for `Nc1cc(Br)cc(NC(=O)C2CC2)n1` [N-(6-Amino-4-brompyridin-2-yl)cyclopropancarboxamid], in data set [1], the chromatographic logP turned out to be 1.61.
Consider `CC(C)C(=O)Nc1cc(N)cc(-c2ccc(C(F)(F)C(F)(F)F)c(F)c2)c1` [N-[5-Amino-3'-fluor-4'-(pentafluorethyl)biphenyl-3-yl]-2-methylpropanamid], for which the chromatographic logP in data set [1] amounted to 3.32.
Still for that read-out and setting: the result for `Nc1cc(-c2ccc(OC(F)(F)F)cc2)cc(NC(=O)C2CC2)n1` [N-{6-Amino-4-[4-(trifluormethoxy)phenyl]pyridin-2-yl}cyclopropancarboxamid] reads 2.79.
